These results are taken from publication PMC7531004, “Discovery of gramicidin A analogues with altered activities by multidimensional screening of a one-bead-one-compound library” (Nature Communications, 2020).

The subject of data set [1] is Streptococcus pyogenes SSI-9. Briefly: Antibacterial activity assay of bead-derived peptides (three concentrations). It is filed as cell-based. More on the design: key: +++: inhibition by the 640-fold diluted peptide solution; ++: inhibition by the 160-fold diluted solution; +: inhibition by the 40-fold diluted solution; -: no inhibition. The conditions noted are these: S. pyogenes, bead-derived peptide solution, three concentrations. An outline of the steps: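 Undiluted, 4-fold and 16-fold DMSO-diluted peptide stocks; S. pyogenes SSI-9, 2 × 10^5 CFU, cation-adjusted MHB (50 mg/L Ca2+, 25 mg/L Mg2+) + 5% laked horse blood; 37 °C, 18 h; readout = cell pellet visible or not.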

A short description of data set [2]: H+/Na+ transport assay of bead-derived peptides (one-point).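 Note: relative to parent gramicidin A activity set to 1.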 It is filed as biochemical. More on the design: key: relative activity; mean of two control wells = 1.00. The conditions noted are these: bead-derived peptide solution, EYPC/EYPG LUVs. In short, it runs like this: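 H+/Na+ transport is monitored through pyranine fluorescence in freshly extruded LUVs after a 30-min room-temperature vortex with each library peptide at a single concentration. Signals are normalized to detergent (Triton X-100) and untreated controls.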

Data set [3] relates to P388 mouse leukemia cells. The conditions noted are these: 92 h. An outline of the steps: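 P388 cells at 1 × 10^4 cells/mL (final) were exposed to library peptides (stocks diluted 250-fold in RPMI1640/10% FBS) for 92 h at 37 °C, 5% CO2. Viable cells were counted by WST-1/1-methoxy PMS (4 h), absorbance 415 nm, and expressed as cell viability (%).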

The structures appear in SMILES notation. Where a SMILES comes first, the peptide text is derived from it. [ ]: non-standard residue; d: D form. The star is where a group is joined. NHCH2CH2OH = OCCN*; For = O=C*

As to `CC(C)C[C@@H](NC(=O)[C@H](Cc1c[nH]c2ccccc12)NC(=O)[C@H](NC(=O)[C@H](Cc1c[nH]c2ccccc12)NC(=O)[C@@H](CC(C)C)NC(=O)[C@H](Cc1c[nH]c2ccccc12)NC(=O)[C@H](NC(=O)[C@@H](NC(=O)[C@H](NC(=O)[C@H](C)NC(=O)[C@H](NC(=O)[C@H](C)NC(=O)CNC(=O)[C@@H](NC=O)C(C)C)C(C)C)C(C)C)C(C)C)C(C)C)[C@H](C)O)C(=O)N[C@@H](Cc1c[nH]c2ccccc12)C(=O)NCCO` [compound 1849] (For-VGA[dV]A[dV]V[dV]W[dL]W[dT]W[dL]W-NHCH2CH2OH), the antibacterial activity result in data set [1] was “+”. Besides, the “H+/Na+ transport activity normalized against the value of 1 (1.00)” value (shortened to “H+/Na+ transport activity normalized”) in data set [2] was 1.07. The cell viability/% in data set [3] is 100.0%.
Regarding `CC(C)C[C@@H](NC(=O)[C@@H](NC(=O)[C@H](NC(=O)[C@H](C)NC(=O)[C@H](NC(=O)[C@H](C)NC(=O)CNC(=O)[C@@H](NC=O)C(C)C)C(C)C)C(C)C)C(C)C)C(=O)N[C@@H](Cc1c[nH]c2ccccc12)C(=O)N[C@@H](C(=O)N[C@@H](Cc1c[nH]c2ccccc12)C(=O)N[C@@H](C(=O)N[C@@H](Cc1c[nH]c2ccccc12)C(=O)N[C@@H](C(=O)N[C@@H](Cc1c[nH]c2ccccc12)C(=O)NCCO)C(C)C)C(C)C)C(C)C` [compound 1873] (For-VGA[dV]A[dV]V[dL]W[dV]W[dV]W[dV]W-NHCH2CH2OH), the antibacterial activity result in data set [1] is recorded as “-”. The “H+/Na+ transport activity normalized” value in data set [2] came out at 1.09. In data set [3], this compound returned a cell viability/% of 100.0%.
With `CNC(=O)C[C@@H](NC(=O)[C@H](Cc1c[nH]c2ccccc12)NC(=O)[C@@H](CC(C)C)NC(=O)[C@H](Cc1c[nH]c2ccccc12)NC(=O)[C@@H](CC(C)C)NC(=O)[C@H](Cc1c[nH]c2ccccc12)NC(=O)[C@H](NC(=O)[C@@H](NC(=O)[C@H](NC(=O)[C@H](C)NC(=O)[C@@H](CC(C)C)NC(=O)[C@H](C)NC(=O)CNC(=O)[C@@H](NC=O)C(C)C)C(C)C)C(C)C)C(C)C)C(=O)N[C@@H](Cc1c[nH]c2ccccc12)C(=O)NCCO` [compound 2020] (For-VGA[dL]A[dV]V[dV]W[dL]W[dL]W[dD](NHMe)W-NHCH2CH2OH), in data set [1], the antibacterial activity result was “-”. In data set [2], the “H+/Na+ transport activity normalized” value amounted to 1.02. This compound showed a cell viability/% in data set [3] of 100.0%.
As for `CC(C)C[C@@H](NC(=O)[C@H](C)NC(=O)CNC(=O)[C@@H](NC=O)C(C)C)C(=O)N[C@@H](C)C(=O)N[C@@H](C(=O)N[C@H](C(=O)N[C@@H](C(=O)N[C@@H](Cc1c[nH]c2ccccc12)C(=O)N[C@@H](C(=O)N[C@@H](Cc1c[nH]c2ccccc12)C(=O)N[C@H](CC(C)C)C(=O)N[C@@H](Cc1c[nH]c2ccccc12)C(=O)N[C@H](CC(C)C)C(=O)N[C@@H](Cc1c[nH]c2ccccc12)C(=O)NCCO)C(C)C)C(C)C)C(C)C)C(C)C` [compound 2082] (For-VGA[dL]A[dV]V[dV]W[dV]W[dL]W[dL]W-NHCH2CH2OH), the antibacterial activity result in data set [1] is “+”. The “H+/Na+ transport activity normalized” value in data set [2] was 1.16. For the same compound, in data set [3], the cell viability/% was determined as 100.0%.
The corresponding values for `CC(C)C[C@@H](NC(=O)[C@H](Cc1c[nH]c2ccccc12)NC(=O)[C@H](NC(=O)[C@H](Cc1c[nH]c2ccccc12)NC(=O)[C@@H](CC(C)C)NC(=O)[C@@H](NC(=O)[C@H](NC(=O)[C@H](C)NC(=O)[C@H](NC(=O)[C@H](C)NC(=O)CNC(=O)[C@@H](NC=O)C(C)C)C(C)C)C(C)C)C(C)C)C(C)C)C(=O)N[C@@H](Cc1c[nH]c2ccccc12)C(=O)N[C@@H](C(=O)N[C@@H](Cc1c[nH]c2ccccc12)C(=O)NCCO)C(C)C` [compound 2120] (For-VGA[dV]A[dV]V[dL]W[dV]W[dL]W[dV]W-NHCH2CH2OH) are “++”, 1.24 and 17.0%.
The corresponding values for `CC(C)C[C@@H](NC(=O)[C@H](C)NC(=O)CNC(=O)[C@@H](NC=O)C(C)C)C(=O)N[C@@H](C)C(=O)N[C@H](CC(C)C)C(=O)N[C@H](C(=O)N[C@@H](C(=O)N[C@@H](Cc1c[nH]c2ccccc12)C(=O)N[C@@H](C(=O)N[C@@H](Cc1c[nH]c2ccccc12)C(=O)N[C@H](CC(C)C)C(=O)N[C@@H](Cc1c[nH]c2ccccc12)C(=O)N[C@H](CC(C)C)C(=O)N[C@@H](Cc1c[nH]c2ccccc12)C(=O)NCCO)C(C)C)[C@H](C)O)C(C)C` [compound 2158] (For-VGA[dL]A[dL]V[dT]W[dV]W[dL]W[dL]W-NHCH2CH2OH) are “-”, 1.18 and 100.0%.
The corresponding values for `CC(C)C[C@@H](NC(=O)[C@H](C)NC(=O)CNC(=O)[C@@H](NC=O)C(C)C)C(=O)N[C@@H](C)C(=O)N[C@@H](C(=O)N[C@H](C(=O)N[C@@H](C(=O)N[C@@H](Cc1c[nH]c2ccccc12)C(=O)N[C@H](CC(C)C)C(=O)N[C@@H](Cc1c[nH]c2ccccc12)C(=O)N[C@H](CC(C)C)C(=O)N[C@@H](Cc1c[nH]c2ccccc12)C(=O)N[C@H](CC(C)C)C(=O)N[C@@H](Cc1c[nH]c2ccccc12)C(=O)NCCO)[C@H](C)O)C(C)C)C(C)C` [compound 2172] (For-VGA[dL]A[dV]V[dT]W[dL]W[dL]W[dL]W-NHCH2CH2OH) are “+”, 1.22 and 100.0%.
Turning to `CC(C)C[C@@H](NC(=O)[C@H](Cc1c[nH]c2ccccc12)NC(=O)[C@H](NC(=O)[C@H](Cc1c[nH]c2ccccc12)NC(=O)[C@H](NC(=O)[C@H](Cc1c[nH]c2ccccc12)NC(=O)[C@H](NC(=O)[C@@H](NC(=O)[C@H](NC(=O)[C@H](C)NC(=O)[C@H](NC(=O)[C@H](C)NC(=O)CNC(=O)[C@@H](NC=O)C(C)C)C(C)C)C(C)C)C(C)C)C(C)C)C(C)C)C(C)C)C(=O)N[C@@H](Cc1c[nH]c2ccccc12)C(=O)NCCO` [compound 2182] (For-VGA[dV]A[dV]V[dV]W[dV]W[dV]W[dL]W-NHCH2CH2OH), the antibacterial activity result in data set [1] is on record as “++”. The “H+/Na+ transport activity normalized” value in data set [2] amounted to 1.28. Moreover, the cell viability/% in data set [3] is listed as 100.0%.
With `CC(C)C[C@@H](NC(=O)[C@H](C)NC(=O)CNC(=O)[C@@H](NC=O)C(C)C)C(=O)N[C@@H](C)C(=O)N[C@H](CC(C)C)C(=O)N[C@H](C(=O)N[C@H](CC(C)C)C(=O)N[C@@H](Cc1c[nH]c2ccccc12)C(=O)N[C@H](CC(C)C)C(=O)N[C@@H](Cc1c[nH]c2ccccc12)C(=O)N[C@H](CC(C)C)C(=O)N[C@@H](Cc1c[nH]c2ccccc12)C(=O)N[C@@H](C(=O)N[C@@H](Cc1c[nH]c2ccccc12)C(=O)NCCO)C(C)C)C(C)C` [compound 2205] (For-VGA[dL]A[dL]V[dL]W[dL]W[dL]W[dV]W-NHCH2CH2OH), the antibacterial activity entry in data set [1] is listed as “-”. The “H+/Na+ transport activity normalized” value in data set [2] was determined as 1.01. For the same compound, the cell viability/% in data set [3] is listed as 0.0%.
For `CC(C)C[C@@H](NC(=O)[C@H](C)NC(=O)[C@H](NC(=O)[C@H](C)NC(=O)CNC(=O)[C@@H](NC=O)C(C)C)C(C)C)C(=O)N[C@H](C(=O)N[C@H](CC(C)C)C(=O)N[C@@H](Cc1c[nH]c2ccccc12)C(=O)N[C@@H](C(=O)N[C@@H](Cc1c[nH]c2ccccc12)C(=O)N[C@@H](C(=O)N[C@@H](Cc1c[nH]c2ccccc12)C(=O)N[C@@H](C(=O)N[C@@H](Cc1c[nH]c2ccccc12)C(=O)NCCO)C(C)C)C(C)C)C(C)C)C(C)C` [compound 2212] (For-VGA[dV]A[dL]V[dL]W[dV]W[dV]W[dV]W-NHCH2CH2OH), the antibacterial activity result in data set [1] was “+”. In data set [2], the “H+/Na+ transport activity normalized” value is 1.18. The cell viability/% in data set [3] came to 11.5%.
The corresponding values for `CNC(=O)C[C@@H](NC(=O)[C@@H](NC(=O)[C@H](NC(=O)[C@H](C)NC(=O)[C@H](NC(=O)[C@H](C)NC(=O)CNC(=O)[C@@H](NC=O)C(C)C)C(C)C)C(C)C)C(C)C)C(=O)N[C@@H](Cc1c[nH]c2ccccc12)C(=O)N[C@H](CC(C)C)C(=O)N[C@@H](Cc1c[nH]c2ccccc12)C(=O)N[C@H](CC(C)C)C(=O)N[C@@H](Cc1c[nH]c2ccccc12)C(=O)N[C@H](CC(C)C)C(=O)N[C@@H](Cc1c[nH]c2ccccc12)C(=O)NCCO` [compound 2218] (For-VGA[dV]A[dV]V[dD](NHMe)W[dL]W[dL]W[dL]W-NHCH2CH2OH) are “-”, 1.32 and 100.0%.
The corresponding values for `CC(C)C[C@@H](NC(=O)[C@H](C)NC(=O)CNC(=O)[C@@H](NC=O)C(C)C)C(=O)N[C@@H](C)C(=O)N[C@@H](C(=O)N[C@H](C(=O)N[C@@H](C(=O)N[C@@H](Cc1c[nH]c2ccccc12)C(=O)N[C@H](CC(C)C)C(=O)N[C@@H](Cc1c[nH]c2ccccc12)C(=O)N[C@H](CC(C)C)C(=O)N[C@@H](Cc1c[nH]c2ccccc12)C(=O)N[C@@H](C(=O)N[C@@H](Cc1c[nH]c2ccccc12)C(=O)NCCO)C(C)C)[C@H](C)O)C(C)C)C(C)C` [compound 2235] (For-VGA[dL]A[dV]V[dT]W[dL]W[dL]W[dV]W-NHCH2CH2OH) are “+”, 1.01 and 100.0%.
